Consider 3 compounds from patent US8586565B2, “Kinase inhibitors useful for the treatment of myleoproliferative diseases and other proliferative diseases” (Deciphera Pharmaceuticals, LLC, priority 2006, dated 2013).

SMILES strings stand for the structures. A value given as a limit tells only on which side of the number the result lay.

Assay [1] relates to BaF3 cells transfected with bcr-Abl point mutant T315I. As to the kind of experiment: Cell proliferation assay, BaF3 T315I bcr-abl. The following applies: Mus musculus, 72 hours, Cell Titer Blue. The assay is classed as cell-based. The protocol:
(§1) Briefly, cells were grown in RPMI 1640 supplemented with 10% characterized fetal bovine serum (HyClone, Logan, Utah) at 37 degrees Celsius, 5% CO2, 95% humidity. Cells were allowed to expand until reaching 80% saturation at which point they were subcultured or harvested for assay use.
(§2) A serial dilution of test compound was dispensed into a 96 well black clear bottom plate (Corning, Corning, N.Y.). For each cell line, three thousand cells were added per well in complete growth medium. Plates were incubated for 72 hours at 37 degrees Celsius, 5% CO2, 95% humidity. At the end of the incubation period Cell Titer Blue (Promega, Madison, Wis.) was added to each well and an additional 4.5 hour incubation at 37 degrees Celsius, 5% CO2, 95% humidity was performed. Plates were then read on a BMG Fluostar Optima (BMG, Durham, N.C.) using an excitation of 544 nm and an emission of 612 nm. Data was analyzed using Prism software (Graphpad, San Diego, Calif.) to calculate IC50's.
(In general: Alamar Blue is a resazurin reagent that responds to reducing activity.)

In assay [2] the test system is BaF3 cells transfected with bcr-Abl point mutant M351T. The assay is described as follows: Cell proliferation assay, BaF3 M351T bcr-abl. In kind it is cell-based. The settings on record: Mus musculus, 72 hours, Cell Titer Blue. The protocol: as §1, §2
The subject of assay [3] is BaF3 cells transfected with wild type bcr-Abl. As to the kind of experiment: Cell proliferation assay, BaF3 wt bcr-abl. In kind it is cell-based. The settings on record: Mus musculus, 72 hours, Cell Titer Blue. How it is done: as §1, §2
Assay [4] concerns BaF3 cells transfected with bcr-Abl point mutant Y253F. As to the kind of experiment: Cell proliferation assay, BaF3 Y253F bcr-abl. In kind it is cell-based. The following applies: Mus musculus, 72 hours, Cell Titer Blue. How it is done:
as §1, §2

The target in assay [5] is T1, pAbl kinase (Seq. ID no. 1) (Homo sapiens, UniProt P00519).
T1 construct: His6 with TEV cleavage site ([…] leader) (N); purchased deCode Genetics
T1 sequence (P00519 with tags, fused parts or gaps): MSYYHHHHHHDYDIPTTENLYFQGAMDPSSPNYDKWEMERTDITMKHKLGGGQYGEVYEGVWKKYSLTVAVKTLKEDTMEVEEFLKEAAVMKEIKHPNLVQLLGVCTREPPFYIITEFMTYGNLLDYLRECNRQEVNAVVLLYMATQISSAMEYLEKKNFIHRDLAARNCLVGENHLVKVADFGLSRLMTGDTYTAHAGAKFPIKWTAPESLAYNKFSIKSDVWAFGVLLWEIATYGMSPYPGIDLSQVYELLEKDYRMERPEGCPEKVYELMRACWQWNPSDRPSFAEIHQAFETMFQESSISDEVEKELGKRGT
The assay is described as follows: pAbl kinase spectrophotometric coupled kinase assay. The settings on record: for IC50: phosphorylated-Abl kinase, 2 h preincubation, ATP 500 μM, read-out: p-Abl IC50. In kind it is biochemical. How it is done: pAbl Kinase Assay Activity of pAbl kinase (Seq. […] Science (2000) 289, 1938-1942). In this assay, the oxidation of NADH (thus the decrease at […]) was continuously monitored spectrophometrically. […] Test compounds were incubated with pAbl (SEQ. […] The absorption at 340 nm was monitored continuously for 2 hours at 30° C. on Polarstar Optima plate reader (BMG). The reaction rate was calculated using the 1.0 to 2.0 h time frame. Percent inhibition was obtained by comparison of reaction rate with that of a control (i.e. with no test compound). IC50 values were calculated from a series of percent inhibition values determined at a range of inhibitor concentrations using software routines as implemented in the GraphPad Prism software package. pAbl was obtained as a phosphorylated form of the enzyme used in the Abl assay (see above).

For assay [6], the target named is T2, Abl kinase (Seq. ID no. 1) (Homo sapiens, UniProt P00519).
T2 construct: His6 with TEV cleavage site ([…] leader) (N); purchased deCode Genetics
T2 sequence (P00519 with tags, fused parts or gaps): T1 sequence (P00519 with tags, fused parts or gaps)
As to the kind of experiment: Abl kinase (u-Abl) spectrophotometric coupled kinase assay. In kind it is biochemical. The settings on record: for IC50: unphosphorylated-Abl kinase, 2 h preincubation, ATP 500 μM. How it is done: Abl kinase (Seq. […] Activity of Abl kinase (Seq. […] Science (2000) 289, 1938-1942). In this assay, the oxidation of NADH (thus the decrease at A340 nm) was continuously monitored spectrophometrically. […] Test compounds were incubated with Abl kinase (Seq. […] The absorption at 340 nm was monitored continuously for 2 hours at 30° C. on Polarstar Optima plate reader (BMG). The reaction rate was calculated using the 1.0 to 2.0 h time frame. Percent inhibition was obtained by comparison of reaction rate with that of a control (i.e. with no test compound). IC50 values were calculated from a series of percent inhibition values determined at a range of inhibitor concentrations using software routines as implemented in the GraphPad Prism software package.

For assay [7], the target named is T3, Abl(T315I) (Seq. ID no. 2) kinase (Homo sapiens, UniProt P00519, T315I).
T3 construct: His6 with TEV cleavage site ([…] leader) (N); purchased decode Genetics
T3 sequence (P00519 with tags, fused parts or gaps T315I): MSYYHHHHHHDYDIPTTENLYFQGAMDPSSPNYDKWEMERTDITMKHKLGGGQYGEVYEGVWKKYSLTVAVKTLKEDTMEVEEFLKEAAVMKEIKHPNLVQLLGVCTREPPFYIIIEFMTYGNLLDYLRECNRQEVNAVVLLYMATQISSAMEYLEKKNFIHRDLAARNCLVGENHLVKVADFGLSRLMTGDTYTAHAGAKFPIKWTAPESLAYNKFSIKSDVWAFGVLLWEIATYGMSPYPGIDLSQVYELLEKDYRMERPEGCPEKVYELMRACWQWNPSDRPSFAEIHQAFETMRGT
As to the kind of experiment: Abl(T315I) kinase spectrophotometric coupled kinase assay. In kind it is biochemical. The settings on record: for IC50: T315I mutant Abl kinase, 2 h preincubation, ATP 500 μM. How it is done: Science (2000) 289, 1938-1942). In this assay, the oxidation of NADH (thus the decrease at A340nm) was continuously monitored spectrophometrically. […] (SEQ. […] The absorption at 340 nm was monitored continuously for 2 hours at 30° C. on Polarstar Optima plate reader (BMG). The reaction rate was calculated using the 1.0 to 2.0 h time frame. Percent inhibition was obtained by comparison of reaction rate with that of a control (i.e. with no test compound). IC50 values were calculated from a series of percent inhibition values determined at a range of inhibitor concentrations using software routines as implemented in the GraphPad Prism software package.

In assay [8] the test system is BaF3 cells transfected with bcr-Abl point mutant E255K. The assay is described as follows: Cell proliferation assay, BaF3 E255K bcr-abl. In kind it is cell-based. The following applies: Mus musculus, 72 hours, Cell Titer Blue. The protocol:
as §1, §2

What is called IC50 is the point on the concentration scale where inhibition reaches its midpoint. As to `CC(C)c1cc(NC(=O)Nc2ccc(Oc3ccnc(C(N)=O)c3)cc2F)n(-c2ccc3ncccc3c2)n1` [Example 15, 1-(4-(2-carbamoylpyridin-4-yloxy)-2-fluorophenyl)-3-(3-isopropyl-1-(quinolin-6-yl)-1H-pyrazol-5-yl)urea], the half-maximal inhibitory concentration (IC50) worked out at 0.025 µM in assay [1]; 0.013 µM in assay [2]; 0.011 µM in assay [3]; 0.086 µM in assay [4]; 0.035 µM in assay [5]; 0.001 µM in assay [6]. The IC50 amounted to 0.056 µM in assay [7] and 0.238 µM in assay [8]. Besides, the “times more potent vs. p-Abl kinase than Compound B” value in assay [5] (relative to Compound B) is over 14 times. For the same compound, the “times more potent vs. u-Abl kinase than Compound B” value in assay [6] (relative to unsubstituted (R16=H) Compound B) is given as 8 times. Besides, the “times more potent vs. T315I mutant Abl kinase than Compound B” value in assay [7] (relative to Compound B) is 18 times.
As for `CNC(=O)c1cc(Oc2ccc(NC(=O)Nc3cc(C(C)(C)C)nn3-c3ccc4ncccc4c3)cc2C)ccn1` [Example 5, 1-(3-tert-butyl-1-(quinolin-6-yl)-1H-pyrazol-5-yl)-3-(3-methyl-4-(2-(methylcarbamoyl)pyridin-4-yloxy)phenyl)urea], the IC50 in assay [1] came out at 0.025 µM; in assay [2], 0.01 µM; in assay [3], 0.008 µM; in assay [4], 0.015 µM; in assay [5], 0.006 µM; in assay [6], 0.0007 µM. Moreover, the IC50 was determined as 0.25 µM in assay [7] and 0.062 µM in assay [8]. In addition, the “times more potent vs. p-Abl kinase than Compound A” value in assay [5] (relative to unsubstituted (R16=H) Compound A) stood at 4 times.
For `CNC(=O)c1cc(Oc2ccc(NC(=O)Nc3cc(C(C)(C)C)nn3-c3ccc4[nH]ncc4c3)c(F)c2)ccn1` [Example 4, 1-(3-tert-butyl-1-(1H-indazol-5-yl)-1H-pyrazol-5-yl)-3-(2-fluoro-4-(2-(methylcarbamoyl)pyridin-4-yloxy)phenyl)urea], the IC50 in assay [5] was 0.02 µM; in assay [6], 0.0007 µM; in assay [7], 0.012 µM. Also, the “times more potent vs. p-Abl kinase than Compound C” value in assay [5] (relative to Compound C) came out at 18 times. Moreover, the “times more potent vs. u-Abl kinase than Compound C” value in assay [6] (relative to unsubstituted (R16=H) Compound C) was determined as 2.2 times. In assay [7] (relative to Compound C), the “times more potent vs. T315I mutant Abl kinase than Compound C” value is listed as 13 times.
